Measurements taken from ChEMBL document CHEMBL1150452, “Kinetic characterization of a peptide inhibitor of trypsin isolated from a synthetic peptide combinatorial library” (Bioorg Med Chem Lett, 1995).

T1: Serine protease 1 (Bos taurus) (UniProt P00760)
T1 sequence (whole entry): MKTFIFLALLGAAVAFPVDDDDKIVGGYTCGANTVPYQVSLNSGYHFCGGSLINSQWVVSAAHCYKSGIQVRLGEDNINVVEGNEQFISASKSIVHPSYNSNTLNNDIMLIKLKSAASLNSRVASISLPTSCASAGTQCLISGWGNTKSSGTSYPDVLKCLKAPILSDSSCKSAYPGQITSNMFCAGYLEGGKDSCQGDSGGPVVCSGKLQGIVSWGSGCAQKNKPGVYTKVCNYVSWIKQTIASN

T2: Serine protease 1 (Bos taurus, UniProt P00760)
T2 sequence (P00760 whole entry): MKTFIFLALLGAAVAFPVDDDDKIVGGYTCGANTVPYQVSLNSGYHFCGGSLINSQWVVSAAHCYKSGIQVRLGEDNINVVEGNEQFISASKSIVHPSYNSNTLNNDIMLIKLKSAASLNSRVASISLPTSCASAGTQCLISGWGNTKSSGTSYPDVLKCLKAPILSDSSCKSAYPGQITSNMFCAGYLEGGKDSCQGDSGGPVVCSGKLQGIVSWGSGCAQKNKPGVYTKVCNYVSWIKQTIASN

B1: Serine protease 1 (Bos taurus), P00760 (protein)
chain: MKTFIFLALLGAAVAFPVDDDDKIVGGYTCGANTVPYQVSLNSGYHFCGGSLINSQWVVSAAHCYKSGIQVRLGEDNINVVEGNEQFISASKSIVHPSYNSNTLNNDIMLIKLKSAASLNSRVASISLPTSCASAGTQCLISGWGNTKSSGTSYPDVLKCLKAPILSDSSCKSAYPGQITSNMFCAGYLEGGKDSCQGDSGGPVVCSGKLQGIVSWGSGCAQKNKPGVYTKVCNYVSWIKQTIASN

Columns and labels:
[1] = target: T1, Serine protease 1 (Bos taurus)
Description: (§1) Trypsin inhibitory potency was evaluated from the catalytic constant Kcat.

Serine protease 1 [2] = target: T2, Serine protease 1; assay: Inhibitory activity against trypsin
Serine protease 1 [3] = target: T2, Serine protease 1; assay: Inhibitory activity against trypsin mediated Tyr-Gly-Aer-p- nitroaniline
[4] = target: T1, Serine protease 1 (Bos taurus); remark: listed apart in the source
Description: as §1

[5] = substrate: CC[C@H](C)[C@H](NC(=O)[C@H](CCCCN)NC(=O)CNC(=O)[C@H](Cc1ccc(O)cc1)NC(=O)[C@@H](N)Cc1ccc(O)cc1)C(=O)N[C@@H](Cc1ccc(O)cc1)C(=O)N[C@@H](CCCN=C(N)N)C(=O)N1CCC[C@H]1C(=O)N[C@@H](CC(=O)O)C(=O)N[C@@H](CCCCN)C(=O)N[C@@H](CCSC)C(=O)O; conditions: Bos taurus
Description: Trypsin inhibitory potency was evaluated from the Michaelis-Menten constant KM.

Molecule | k cat [1] | further results
CC[C@H](C)[C@H](NC(=O)[C@H](CCCCN)NC(=O)[C@H](C)NC(=O)CNC(=O)[C@H](Cc1ccc(O)cc1)NC(=O)[C@@H](N)Cc1ccc(O)cc1)C(=O)N[C@@H](C)C(=O)N[C@@H](CCCN=C(N)N)C(=O)N1CCC[C@@H]1C(=O)N[C@@H](CC(=O)O)C(=O)N[C@@H](CCCCN)C(=O)N[C@@H](CCSC)C(=O)O | 1.3 s⁻¹ | –
CC[C@H](C)[C@H](NC(=O)[C@H](CCCCN)NC(=O)[C@H](C)NC(=O)CNC(=O)[C@H](Cc1ccc(O)cc1)NC(=O)[C@@H](N)Cc1ccc(O)cc1)C(=O)N[C@@H](Cc1ccc(O)cc1)C(=O)N[C@@H](C)C(=O)N1CCC[C@@H]1C(=O)N[C@@H](CC(=O)O)C(=O)N[C@@H](CCCCN)C(=O)N[C@@H](CCSC)C(=O)O | 0.6 s⁻¹ | –
CC[C@H](C)[C@H](NC(=O)[C@H](CCCN=C(N)N)NC(=O)[C@H](C)NC(=O)CNC(=O)[C@H](Cc1ccc(O)cc1)NC(=O)[C@@H](N)Cc1ccc(O)cc1)C(=O)N[C@@H](Cc1ccc(O)cc1)C(=O)N[C@@H](CCCN=C(N)N)C(=O)N1CCC[C@@H]1C(=O)N[C@@H](CC(=O)O)C(=O)N[C@@H](CCCCN)C(=O)N[C@@H](CCSC)C(=O)O | 30 s⁻¹ | –
H-YYGAKAYRPDKM-OH | 87 s⁻¹ | –
H-YYGAKIYRPDKM-OH | – | IC50 (Serine protease 1 [2]): 10 µM; Ki (Serine protease 1 [3]): 9.4 µM
H-YYGKIYRPDKM-OH | – | k cat [4]: 0.73 s⁻¹
B1 | – | Km [5]: 24 mM
